Assay results from ChEMBL document CHEMBL3421545, “Discovery of novel non-covalent inhibitors selective to the β5-subunit of the human 20S proteasome” (Eur J Med Chem, 2015).

How the values were obtained:
[1] = biological target: T1, Proteasome Macropain subunit MB1 (Homo sapiens, UniProt P28074); test: Inhibition of chymotrypsin-like activity of human beta-5 subunit of 20S proteasome using Suc-LLVY-AMC as substrate by fluorometer analysis
T1 sequence (P28074 whole entry): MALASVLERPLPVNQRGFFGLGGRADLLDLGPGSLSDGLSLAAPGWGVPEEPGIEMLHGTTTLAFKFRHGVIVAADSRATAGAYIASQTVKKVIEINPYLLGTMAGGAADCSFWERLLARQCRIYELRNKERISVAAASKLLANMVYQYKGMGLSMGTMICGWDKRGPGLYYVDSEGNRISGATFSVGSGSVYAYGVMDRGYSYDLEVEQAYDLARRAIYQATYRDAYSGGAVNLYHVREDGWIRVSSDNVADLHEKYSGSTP

[2] = Inhibition of chymotrypsin-like activity of 20S proteasome isolated from human THP1 cells using Suc-Leu-Leu-Val-Tyr-MCA as substrate by fluorometer analysis; assay type: cell-free; details: thp-1
[3] = biological target: Proteasome subunit beta type-7, β2, trypsin-like (Homo sapiens) (UniProt Q99436); test: Inhibition of trypsin-like activity of human beta-2 subunit of 20S proteasome using Bz-VGR-AMC as substrate at 10 ug/ml by fluorometer analysis
Chain of Proteasome subunit beta type-7, β2, trypsin-like (Homo sapiens) (Q99436 whole entry, looked up): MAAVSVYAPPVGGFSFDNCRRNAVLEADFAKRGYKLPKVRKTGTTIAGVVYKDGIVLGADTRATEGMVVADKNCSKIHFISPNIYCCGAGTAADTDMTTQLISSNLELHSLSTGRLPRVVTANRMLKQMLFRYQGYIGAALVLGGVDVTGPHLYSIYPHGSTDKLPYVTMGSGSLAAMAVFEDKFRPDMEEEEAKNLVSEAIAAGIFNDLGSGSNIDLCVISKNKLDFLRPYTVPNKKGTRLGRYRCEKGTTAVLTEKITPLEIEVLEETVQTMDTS

[4] = biological target: Proteasome subunit beta type-6, β1, caspase-like (Homo sapiens) (UniProt P28072); test: Inhibition of caspase-like activity of human beta-1 subunit of 20S proteasome using (Z)-LLE-bNA as substrate at 10 ug/ml by fluorometer analysis
Chain of Proteasome subunit beta type-6, β1, caspase-like (Homo sapiens) (P28072 whole entry, looked up): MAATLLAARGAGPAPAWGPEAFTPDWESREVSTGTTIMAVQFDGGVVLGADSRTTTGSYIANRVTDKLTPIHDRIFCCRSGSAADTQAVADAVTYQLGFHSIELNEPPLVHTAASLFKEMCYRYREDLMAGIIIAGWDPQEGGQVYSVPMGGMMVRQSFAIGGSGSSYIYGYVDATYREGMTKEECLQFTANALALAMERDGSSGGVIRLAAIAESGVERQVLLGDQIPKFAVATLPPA

IC50 ([1]; read-out: IC50) | IC50 [1] | SMILES | also measured
1.63 µM |  | COc1ccc(CNC(=O)[C@@H](NC(=O)[C@H](CCC(N)=O)NC(=O)Cc2cccc(Oc3ccccc3)c2)C(C)C)c(O)c1 | 
17.2 µM |  | CC(C)[C@H](NC(=O)[C@H](CC(N)=O)NC(=O)Cc1cccc(Oc2ccccc2)c1)C(=O)NCCO | 
 |  | C/C=C\NC(=O)[C@H]1NC(=O)[C@@H](CC(N)=O)NC(=O)[C@@H](NC(=O)C(=O)[C@@H](C)CC)Cc2ccc(O)c(c2)-c2cccc3c2NC(=O)[C@@]3(O)[C@@H]1O | IC50 [2]: 0.0054 µM
 | Not Active | CC(C)[C@H](NC(=O)[C@H](CC(N)=O)NC(=O)Cc1cccc(Oc2ccccc2)c1)C(=O)N[C@H](C)c1ccccc1 | 
 | Not Active | COc1ccc(CNC(=O)[C@@H](NC(=O)[C@H](CC(N)=O)NC(=O)Cc2cccc(Oc3ccccc3)c2)C(C)C)c(OC)c1 | 
13 µM |  | CCCNC(=O)[C@@H](NC(=O)[C@H](CC(N)=O)NC(=O)Cc1cccc(Oc2ccccc2)c1)C(C)C | 
17.3 µM |  | CC(C)[C@H](NC(=O)[C@H](CC(N)=O)NC(=O)Cc1cccc(Oc2ccccc2)c1)C(=O)OCc1ccccc1 | 
11.7 µM |  | COc1ccc(CNC(=O)[C@@H](NC(=O)[C@H](CCCCNC(=O)OCc2ccccc2)NC(=O)Cc2cccc(Oc3ccccc3)c2)C(C)C)c(O)c1 | 
0.92 µM |  | CC(C)[C@H](NC(=O)[C@H](CC(N)=O)NC(=O)Cc1cccc(Oc2ccccc2)c1)C(=O)N[C@H](C(=O)OCc1ccccc1)[C@H](C)O | inhibition [3]: < 50%; inhibition [4]: < 50%
0.29 µM |  | COC(=O)[C@@H](NC(=O)[C@@H](NC(=O)[C@H](CC(N)=O)NC(=O)Cc1cccc(Oc2ccccc2)c1)C(C)C)[C@H](C)O | inhibition [3]: < 50%; inhibition [4]: < 50%
 | Not Active | CC(C)[C@H](NC(=O)[C@H](CC(N)=O)NC(=O)Cc1cccc(Oc2ccccc2)c1)C(=O)O | 
13.9 µM |  | CC(C)[C@H](NC(=O)[C@H](CC(N)=O)NC(=O)Cc1cccc(Oc2ccccc2)c1)C(=O)N[C@H](C(=O)O)[C@H](C)O | 
0.66 µM |  | COc1ccc(CNC(=O)[C@@H](NC(=O)[C@H](CC(N)=O)NC(=O)Cc2cccc(Oc3ccccc3)c2)C(C)C)c(O)c1 | inhibition [3]: < 50%; inhibition [4]: < 50%
 | Not Active | COc1ccc(CNC(=O)[C@@H](NC(=O)[C@H](CCCCN)NC(=O)Cc2cccc(Oc3ccccc3)c2)C(C)C)c(O)c1 | 
 | Not Active | CC(C)[C@H](NC(=O)[C@H](CC(N)=O)NC(=O)Cc1cccc(Oc2ccccc2)c1)C(=O)NCCc1ccccc1 | 
 | Not Active | CC(C)[C@H](NC(=O)[C@H](CC(N)=O)NC(=O)Cc1cccc(Oc2ccccc2)c1)C(=O)N[C@@H](C)c1ccccc1 | 
